Active and inactive are the calls of the source. No rule for the calls is given here.
Test system: GENE-TOX genotoxicity assays, various organisms and cells
Experiment: GENE-TOX mutagenicity studies
Conditions: for call: Assay Type: In vivo carcinogenicity studies, Assay Code: CCG+
[1] = Species/Cell Type: Drosophila melanogaster, Assay Type: Sex-linked recessive lethal gene mutation, Assay Code: SRL+, Evaluation Type: Evaluation A (Pre-1980)
[2] = Species/Cell Type: Escherichia coli polA (W3119 vs P3478), Assay Type: Rec-assay, DNA effects (bacterial DNA repair), Assay Code: RE1T, Evaluation Type: Evaluation A (Pre-1980)
[3] = Species/Cell Type: Nonhuman, Evaluation Type: Evaluation A (Pre-1980)
[4] = Species/Cell Type: Nonhuman, Assay Type: Sister-chromatid exchange (SCE) in vitro, Assay Code: SC2+D, Dose Response: With dose response, Evaluation Type: Evaluation A (Pre-1980)
[5] = Species/Cell Type: Salmonella typhimurium (one or more of the five standard strains: TA98, TA100, TA1535, TA1537, and TA1538), Assay Type: Histidine reverse gene mutation, Ames assay, Assay Code: SAL+, Evaluation Type: Evaluation A (Pre-1980)
[6] = Species/Cell Type: Mammalian polychromatic erythrocytes, Assay Type: Micronucleus test, chromosome aberrations, Assay Code: MNTT, Evaluation Type: Evaluation B (Post-1980)
[7] = Species/Cell Type: Mouse, Sex: Male, Assay Type: Sperm morphology, Assay Code: SPI-, Evaluation Type: Evaluation A (Pre-1980)
[8] = Species/Cell Type: Fischer rat embryo (RLV/1706) cells, Assay Type: Cell transformation, viral enhanced, Assay Code: CTR+, Evaluation Type: Evaluation A (Pre-1980)
[9] = Species/Cell Type: Mammalian polychromatic erythrocytes, Assay Type: Micronucleus test, chromosome aberrations, Assay Code: MNT+U, Dose Response: Unconfirmed positive response, Evaluation Type: Evaluation B (Post-1980)
[10] = Species/Cell Type: Bacillus subtilis (H17 vs M45), Assay Type: Rec-assay, spot test, DNA effects (bacterial DNA repair), Assay Code: REW+, Evaluation Type: Evaluation A (Pre-1980)
[11] = Species/Cell Type: Salmonella typhimurium (one or more of the five standard strains: TA98, TA100, TA1535, TA1537, and TA1538), Assay Type: Histidine reverse gene mutation, Ames assay, Assay Code: SAL-, Evaluation Type: Evaluation A (Pre-1980)

Structure (SMILES): N[C@@H](Cc1ccc(N(CCCl)CCCl)cc1)C(=O)O
- mutagenic call [1]: active; positive
- mutagenic call (Species/Cell Type: Drosophila melanogaster, Sex: Male, Assay Type: Heritable translocation test, chromosome aberrations, Assay Code: DHTT, Evaluation Type: Evaluation A (Pre-1980)): no conclusion
- mutagenic call (Species/Cell Type: Escherichia coli polA (W3110 vs P3478), Assay Type: Rec-assay, DNA effects (bacterial DNA repair), Assay Code: RE2+, Evaluation Type: Evaluation A (Pre-1980)): active; positive
- mutagenic call [2]: no conclusion
- mutagenic call (Species/Cell Type: Human cell culture, Assay Type: Chromosome aberrations in vitro, Assay Code: CYZ+, Evaluation Type: Evaluation A (Pre-1980)): active; positive
- mutagenic call (Species/Cell Type: Human lymphocytes, Assay Type: Sister-chromatid exchange (SCE) in vitro, Assay Code: SCL+, Evaluation Type: Evaluation A (Pre-1980)): active; positive
- mutagenic call (Species/Cell Type: Human lymphocytes, Assay Type: Sister-chromatid exchange (SCE) in vitro, Assay Code: SCL+D, Dose Response: With dose response, Evaluation Type: Evaluation B (Post-1980)): active; positive
- mutagenic call (Species/Cell Type: Human lymphocytes, Assay Type: Sister-chromatid exchange (SCE) in vivo, Assay Code: SCY+, Evaluation Type: Evaluation B (Post-1980)): active; positive
- mutagenic call (Species/Cell Type: Human, Assay Type: Sister-chromatid exchange (SCE) in vitro, Assay Code: SC1+D, Dose Response: With dose response, Evaluation Type: Evaluation B (Post-1980)): active; positive
- mutagenic call (Species/Cell Type: Mouse (C3H/10T1/2) cells, Assay Type: Cell transformation, Assay Code: CTH+, Evaluation Type: Evaluation A (Pre-1980)): active; positive
- mutagenic call (Species/Cell Type: Nonhuman, Assay Type: Chromosome aberrations in vitro, Assay Code: CY&+, Evaluation Type: Evaluation A (Pre-1980)): active; positive
- call [3]: active; positive
- mutagenic call [4]: active; positive
- mutagenic call [5]: active; positive

Structure (SMILES): Cc1ccc(S(=O)(=O)N(C)N=O)cc1
- mutagenic call (Species/Cell Type: Arabidopsis species, Assay Type: Gene mutation, Assay Code: ARM+, Evaluation Type: Evaluation A (Pre-1980)): active; positive

Structure (SMILES): Cc1c(N)nc(C(CC(N)=O)NCC(N)C(N)=O)nc1C(=O)NC(C(=O)NC(C)C(O)C(C)C(=O)NC(C(=O)NCCc1nc(-c2nc(C(=O)NCCC[S+](C)C)cs2)cs1)C(C)O)C(O[C@@H]1O[C@@H](CO)[C@@H](O)[C@H](O)[C@@H]1O[C@H]1O[C@H](CO)[C@@H](O)[C@H](OC(N)=O)[C@@H]1O)c1cnc[nH]1 (stereo not given in full)
- mutagenic call (Species/Cell Type: Human lymphocytes, Assay Type: Sister-chromatid exchange (SCE) in vitro, Assay Code: SCLT, Evaluation Type: Evaluation B (Post-1980)): no conclusion
- mutagenic call (Species/Cell Type: Human, Assay Type: Sister-chromatid exchange (SCE) in vitro, Assay Code: SC1T, Evaluation Type: Evaluation B (Post-1980)): no conclusion
- mutagenic call (Species/Cell Type: Saccharomyces cerevisiae, Assay Type: Mitotic recombination or gene conversion, Assay Code: YEC+, Evaluation Type: Evaluation A (Pre-1980)): active; positive
- mutagenic call (Species/Cell Type: Saccharomyces cerevisiae, Assay Type: Mitotic recombination or gene conversion, Assay Code: YEH+, Evaluation Type: Evaluation A (Pre-1980)): active; positive
- mutagenic call (Species/Cell Type: Saccharomyces cerevisiae, Assay Type: Reverse gene mutation, Assay Code: YER+, Evaluation Type: Evaluation A (Pre-1980)): active; positive

Structure (SMILES): CC(=O)c1cc(O)c(C(C)C)c2cc(C)c(-c3c(C)cc4c(C(C)C)c(O)c(O)c(C=O)c4c3O)c(O)c12
- mutagenic call [6]: no conclusion
- mutagenic call (Species/Cell Type: Nonhuman, Assay Type: Sister-chromatid exchange (SCE) in vivo, Assay Code: SC3+D, Dose Response: With dose response, Evaluation Type: Evaluation B (Post-1980)): active; positive

Structure (SMILES): CC(=O)Oc1ccccc1C(=O)O
- mutagenic call (Species/Cell Type: Mammalian polychromatic erythrocytes, Assay Type: Micronucleus test, chromosome aberrations, Assay Code: MNTT, Evaluation Type: Evaluation A (Pre-1980)): no conclusion
- mutagenic call [7]: inactive; negative

Structure (SMILES): CN(C)c1ccc(C(=O)c2ccc(N(C)C)cc2)cc1
- mutagenic call [8]: active; positive
- call [3]: active; positive

Structure (SMILES): CN(C)c1ccc(N=Nc2cccc(CCl)c2)cc1
- mutagenic call (Species/Cell Type: Drosophila melanogaster, Assay Type: Sex-linked recessive lethal gene mutation, Assay Code: SRLT, Evaluation Type: Evaluation A (Pre-1980)): no conclusion

Structure (SMILES): c1ccncc1
- mutagenic call [6]: no conclusion
- mutagenic call [4]: active; positive

Structure (SMILES): O=c1[nH]c2ccccc2n1CCCN1CCC(n2c(=O)[nH]c3cc(Cl)ccc32)CC1
- mutagenic call [9]: active; positive

Structure (SMILES): CC1CN(N=O)CC(C)N1C(=O)c1ccccc1 (stereo not given)
- mutagenic call (Species/Cell Type: Salmonella typhimurium (one or more of the five standard strains: TA98, TA100, TA1535, TA1537, and TA1538), Assay Type: Histidine reverse gene mutation, Ames assay, Assay Code: SALT, Evaluation Type: Evaluation A (Pre-1980)): no conclusion

Structure (SMILES): CCC[CH2][Sn]([CH2]CCC)([CH2]CCC)[O][Sn]([CH2]CCC)([CH2]CCC)[CH2]CCC
- mutagenic call [9]: active; positive

Structure (SMILES): CC(=O)[O][Hg][c]1ccccc1
- mutagenic call [10]: active; positive
- mutagenic call (Species/Cell Type: Drosophila melanogaster, Assay Type: Aneuploidy, sex chromosome gain, chromosome aberrations, Assay Code: DAG+F, Evaluation Type: Evaluation A (Pre-1980)): active; positive
- mutagenic call (Species/Cell Type: Drosophila melanogaster, Assay Type: Aneuploidy, whole sex chromosome loss, chromosome aberrations, Assay Code: DAC+F, Evaluation Type: Evaluation A (Pre-1980)): active; positive

Structure (SMILES): Cc1c2c(c(CO)c3c1ccc1ccccc13)C=C[C@H](O)[C@H]2O
- mutagenic call (Species/Cell Type: Chinese hamster lung (V79) cells, Assay Type: Forward gene mutation at the HPRT or ouabain locus, Assay Code: V79-*, Activation: With metabolic activation, Evaluation Type: Evaluation A (Pre-1980)): inactive; negative

Structure (SMILES): CNc1ccc(N(CCO)CCO)cc1[N+](=O)[O-]
- mutagenic call [6]: no conclusion
- call [3]: active; positive
- mutagenic call (Species/Cell Type: Nonhuman, Assay Type: Sister-chromatid exchange (SCE) in vitro, Assay Code: SC2+D, Dose Response: With dose response, Evaluation Type: Evaluation B (Post-1980)): active; positive

Structure (SMILES): O=c1[nH]c2c(c(=O)n1C1CCCCC1)CCC2 (tested in a mixture with another compound)
- mutagenic call (Species/Cell Type: Saccharomyces cerevisiae, Assay Type: Mitotic recombination or gene conversion, Assay Code: YEC-, Evaluation Type: Evaluation A (Pre-1980)): inactive; negative

Structure (SMILES): O[C@@H]1[C@@H]2O[C@@H]2c2ccccc2[C@H]1O
- mutagenic call (Species/Cell Type: Escherichia coli polA (W3119 vs P3478), Assay Type: Rec-assay, DNA effects (bacterial DNA repair), Assay Code: RE1+, Evaluation Type: Evaluation A (Pre-1980)): active; positive

Structure (SMILES): OCC(Br)CBr (stereo not given)
- mutagenic call [5]: active; positive

Structure (SMILES): O=[N+]([O-])[O-].O=[N+]([O-])[O-].[Cd+2]
- mutagenic call [10]: active; positive

Structure (SMILES): CC1C(=O)OC2CC[N+]3([O-])CC=C(COC(=O)C(C)(O)C1(C)O)C23 (stereo not given)
- mutagenic call [1]: active; positive

Structure (SMILES): O=[N+]([O-])c1ccc(N2CCN(c3ccccc3)CC2)c2c1no[n+]2[O-]
- mutagenic call [5]: active; positive

Structure (SMILES): [Mg+2]
- mutagenic call (Species/Cell Type: Bacillus subtilis (H17 vs M45), Assay Type: Rec-assay, spot test, DNA effects (bacterial DNA repair), Assay Code: REW-, Evaluation Type: Evaluation A (Pre-1980)): inactive; negative

Structure (SMILES): CC(N)=O
- mutagenic call (Species/Cell Type: Escherichia coli polA (W3110 vs P3478), Assay Type: Rec-assay, DNA effects (bacterial DNA repair), Assay Code: RE2-, Evaluation Type: Evaluation A (Pre-1980)): inactive; negative
- mutagenic call [2]: no conclusion
- mutagenic call [8]: active; positive
- mutagenic call [9]: active; positive
- mutagenic call (Species/Cell Type: Mouse embryo (AKR/ME) cells, Assay Type: Cell transformation, Assay Code: CTK+, Evaluation Type: Evaluation A (Pre-1980)): active; positive
- mutagenic call [7]: inactive; negative
- call [3]: active; positive
- mutagenic call (Species/Cell Type: Saccharomyces cerevisiae, Assay Type: Mitotic recombination or gene conversion, Assay Code: YEH-, Evaluation Type: Evaluation A (Pre-1980)): inactive; negative
- mutagenic call [11]: inactive; negative
- mutagenic call (Species/Cell Type: Salmonella typhimurium, Assay Type: Forward and reverse gene mutation, host-mediated assay, Assay Code: HMA-, Evaluation Type: Evaluation A (Pre-1980)): inactive; negative
- mutagenic call (Species/Cell Type: Syrian hamster embryo (SHE) cells, Assay Type: Cell transformation, clonal assay, Assay Code: CTC+, Evaluation Type: Evaluation A (Pre-1980)): active; positive

Structure (SMILES): OCCO
- mutagenic call (Species/Cell Type: Drosophila melanogaster, Assay Type: Aneuploidy, sex chromosome gain, chromosome aberrations, Assay Code: DAGT, Evaluation Type: Evaluation A (Pre-1980)): no conclusion
- mutagenic call (Species/Cell Type: Drosophila melanogaster, Assay Type: Aneuploidy, whole sex chromosome loss, chromosome aberrations, Assay Code: DACT, Evaluation Type: Evaluation A (Pre-1980)): no conclusion
- mutagenic call (Species/Cell Type: Neurospora crassa, Assay Type: Aneuploidy, chromosome aberrations, Assay Code: NEN-, Evaluation Type: Evaluation A (Pre-1980)): inactive; negative
- mutagenic call [11]: inactive; negative
- mutagenic call (Species/Cell Type: Syrian hamster embryo (SA7/SHE) cells, Assay Type: Cell transformation, viral enhanced, Assay Code: CT7-, Evaluation Type: Evaluation A (Pre-1980)): inactive; negative

Structure (SMILES): [O-]/[N+](=N\O)c1ccccc1
- call [3]: active; positive
- mutagenic call (Species/Cell Type: Vicia faba, Assay Type: Chromosome aberrations, Assay Code: VIC+, Evaluation Type: Evaluation A (Pre-1980)): active; positive

Structure (SMILES): BrCC(Br)C(Br)CBr (stereo not given)
- mutagenic call (Species/Cell Type: Rodents, Sex: Male, Assay Type: Dominant lethal test, Assay Code: DLT-, Evaluation Type: Evaluation A (Pre-1980)): inactive; negative
